Consider four compounds from paper PMC8856595 (2021).

Common to all, as to experiment: ITC
For experiment [1], the system named is aptananozyme X: 5'-amino-TBA (6) on Cu2+ C-dots (DNA, aptamer) TGTGGTGTGTGAGTGCGGTGCCC
The settings on record: 100 mM NaCl, 5 mM MgCl2, 50 mM phosphate, pH 7.2, Figure S16 legend: 50 mM NaCl, 10 mM MgCl2.

Experiment [2] relates to aptananozyme XI: 3'-amino-TBA (7) on Cu2+ C-dots (DNA, aptamer) TGTGGTGTGTGAGTGCGGTGCCC
The settings on record: 100 mM NaCl, 5 mM MgCl2, 50 mM phosphate, pH 7.2, Figure S16 legend: 50 mM NaCl, 10 mM MgCl2.

Experiment [3] relates to aptananozyme XII: 5'-amino-(TGTA)-TBA (8) on Cu2+ C-dots (DNA, aptamer) TGTATGTGGTGTGTGAGTGCGGTGCCC
The settings on record: 100 mM NaCl, 5 mM MgCl2, 50 mM phosphate, pH 7.2, Figure S16 legend: 50 mM NaCl, 10 mM MgCl2.

Experiment [4] deals with aptananozyme XIV: 5'-amino-(TGTA)3-TBA (10) on Cu2+ C-dots (DNA, aptamer) TGTATGTATGTATGTGGTGTGTGAGTGCGGTGCCC
The conditions noted are these: 100 mM NaCl, 5 mM MgCl2, 50 mM phosphate, pH 7.2, Figure S16 legend: 50 mM NaCl, 10 mM MgCl2.

For experiment [5], the system named is aptananozyme XIII: 5'-amino-(TGTA)2-TBA (9) on Cu2+ C-dots (DNA, aptamer) TGTATGTATGTGGTGTGTGAGTGCGGTGCCC
The conditions noted are these: 100 mM NaCl, 5 mM MgCl2, 50 mM phosphate, pH 7.2, Figure S16 legend: 50 mM NaCl, 10 mM MgCl2.

For experiment [6], the system named is aptananozyme I: 5'-amino-DBA (1) on Cu2+ C-dots (DNA, aptamer) CGACGCCAGTTTGAAGGTTCGTTCGCAGGTGTGGAGTGACGTCG
The conditions noted are these: 100 mM NaCl, 5 mM MgCl2, 5 mM MES, pH 5.5; for Kd: printed as 'the aptamer', methods: aptananozyme.

The test system of experiment [7] is aptananozyme IV: 5'-amino-(TGTA)2-DBA (4) on Cu2+ C-dots (DNA, aptamer) TGTATGTACGACGCCAGTTTGAAGGTTCGTTCGCAGGTGTGGAGTGACGTCG
The settings on record: 100 mM NaCl, 5 mM MgCl2, 5 mM MES, pH 5.5.

Experiment [8] deals with aptananozyme II: 3'-amino-DBA (2) on Cu2+ C-dots (DNA, aptamer) CGACGCCAGTTTGAAGGTTCGTTCGCAGGTGTGGAGTGACGTCG
The settings on record: 100 mM NaCl, 5 mM MgCl2, 5 mM MES, pH 5.5.

Experiment [9] deals with aptananozyme III: 5'-amino-(TGTA)-DBA (3) on Cu2+ C-dots (DNA, aptamer) TGTACGACGCCAGTTTGAAGGTTCGTTCGCAGGTGTGGAGTGACGTCG
The conditions noted are these: 100 mM NaCl, 5 mM MgCl2, 5 mM MES, pH 5.5.

The subject of experiment [10] is aptananozyme V: 5'-amino-(TGTA)3-DBA (5) on Cu2+ C-dots (DNA, aptamer) TGTATGTATGTACGACGCCAGTTTGAAGGTTCGTTCGCAGGTGTGGAGTGACGTCG
The conditions noted are these: 100 mM NaCl, 5 mM MgCl2, 5 mM MES, pH 5.5.

Usually Kd stands for the concentration at which binding is half-saturated. A low value points to higher affinity. Regarding `NC(=O)[C@@H](N)Cc1ccc(O)cc1`, the values for the Kd in [1], in experiment [2] and in [4] were 830 ± 10 nM, 1240 ± 50 nM and 1400 ± 100 nM, respectively. Further, the binding result in experiment [3] and in [5] was “yes” in each case.
`NCCc1ccc(O)c(O)c1`: the binding result in experiment [6] (aptamer on Cu2+ C-dots), in experiment [7], in experiment [8] and in experiment [9] was “yes” each time. Moreover, the Kd in experiment [10] came to 3900 ± 200 nM.
`N[C@@H](Cc1ccc(O)c(O)c1)C(=O)O`: the Kd in experiment [6] amounted to 1700 ± 400 nM.
On to `N[C@H](Cc1ccc(O)c(O)c1)C(=O)O`, for which, in experiment [6], the Kd was 6600 ± 1000 nM.
